US10343997B1, “Ursolic acid derivatives” (KING SAUD UNIVERSITY, priority 2018, dated 2019)

Tests used:
pithed rat = assay: In vivo evaluation of calcium blockade in the pithed rat (cardio accelerator response)
Experimental: Calcium blockers in the pithed rat were calculated in vivo.
Male Sprague-Dawley rats (250-350 g) were anaesthetized with methohexitone sodium (50 mg/kg, intraperitoneal injection). Following cannulation of the trachea, the rats were pithed through one orbit with a stainless steel rod and immediately artificially respired with room air (78 strokes/min, 1 mil/100 g body weight) via a Palmer small animal respiration pump. A jugular vein was cannulated for administration of drugs. Arterial blood pressure was recorded from a carotid artery using a pressure transducer.
Heart rate was derived from the phasic arterial pressure signal with a phase lock loop ratemeter (BRL Instrument Services). […] The animals were kept warm by an incandescent lamp positioned about 25 cm above them. The pithing rod was withdrawn until the tip reached the thoracic portion of the spinal cord. All rats then received (+)tubocurarine (1.5 mg/kg, intravenously) and were bilaterally vagotomized.
The cardio accelerator response was obtained by continuous electrical stimulation of the thoracic spinal cord with square wave pulses of 0.5 ms duration, at supramaximal voltage at a frequency of 0.5 Hz using the pithing rod as a stimulating electrode. An indifferent electrode was inserted subcutaneously in the femoral region. Only rats with a resulting tachycardia of more than 100 beats/min were included in the experiments. When the cardio accelerator response was stabilized for about 3-5 min, cumulative intravenous doses of test drug or corresponding vehicle were administered. Successive doses were given when the response to the previous dose stabilized.
Doses of β-blockers or calcium-antagonists, which reduce the tachycardia to 50%, were tested again. Three minutes after administration of the drug, calcium gluconate (1 mg/min) or water (0.1 ml/min) was infused using a Harvard apparatus compact infusion pump.
The level of tachycardia immediately prior to drug administration was taken as 100% and responses to drugs were calculated as a percentage of the predose tachycardia. […] Significance of differences between the groups receiving calcium gluconate and their parallel vehicle controls were calculated by a Student's t-test.

cardiac function = conditions: background statement; cited from earlier work
[1] = test system: guinea-pig isolated ileum; assay: Relaxation of electrically induced contraction of guinea-pig isolated ileum; type: cell-based; conditions: Cavia porcellus, stimulation 25V, 0.1 Hz, 5 ms, means ± s.e., n = 6, read-out: pIC50 (−log IC50) for relaxation of electrically induced contraction (converted)
Experimental: (§1) Male guinea-pigs, weighing between 200-400 g, were killed by a blow on the head after previously being deprived of food for 18 h but having had free access to water. The non-terminal part of the ileum was removed and cut into 20-mm long segments, which were suspended in an organ bath and connected to an isotonic transducer. The organ bath contained 50 mL physiological solution oxygenated with 95% O2 and 5% […] at 37° C. The physiological solution was typically normal saline with 0.9% sodium chloride. The fluid of the organ bath was changed every 15 min. The ileal segments were subjected to a resting tension of 0.5-1 g and left to equilibrate for 60 min.
Each segment was treated with only one compound. The pIC50 (−log IC50) value of each compound was calculated from concentration-response curves.

guinea-pig ileum = assay: Calcium-induced contraction in K+-depolarized guinea-pig ileum; type: cell-based; conditions: 2×10^−9 M of compound; for Emax at 0.002 µM: Cavia porcellus, contraction induced by 3 mM calcium, 84.44% without antagonist, read-out: calcium-induced contractions, % of the maximum response
Experimental: as §1
As a control, increasing concentrations of CaCl2 (0.1, 0.3, 1, 3, 10 mmol) were added to an organ bath and the contractile response of the ileum was recorded. Tissues were then preincubated for 15-20 min with one concentration of each calcium channel blocker and increasing concentrations of CaCl2 were again added to the bathing media.
Response percentage ratios were calculated by dividing the percent of maximum responses induced by 3 mM calcium in the presence of each calcium-channel blocker at a concentration of 2×10^−9 M by the percent of maximum response induced by 3 mM calcium in the absence of any calcium-channel blocker.

rat isolated aorta = assay: Relaxation of potassium-induced contraction of rat isolated aorta; type: cell-based; conditions: rat isolated aorta pre-contracted with 40 mM KCl; means ± s.e., n = 6; read-out: pIC50 (−log IC50) for relaxation of potassium-induced contraction (converted)
Experimental: Six white male rats were killed by a blow on the head and decapitation. The thoracic aorta of each rat was isolated, carefully dissected from the surrounding tissues, and cut into 5 segments, 3 mm in length. The segments were joined together, suspended in Krebs solution (composition in mmol: NaCl 118, KCl 4.8, CaCl2, 2.5, KH2PO4 1.2, MgSO4 1.2, NaHCO3 25 and glucose 10) at 37° C. and oxygenated with 95% O2 and 5% CO2. The fluid of the organ bath was changed every 15 min. The tissue was subject to a resting tension of 1 g and left to equilibrate for 1 h. The contractions of isolated aortic rings were recorded by means of a force transducer and Beckman physiograph. […] The pre-contracted tissue was then subject to increasing amounts of one of the calcium channel blockers added to the organ bath. The pIC50 value of each compound was calculated from concentration-response curves.

[2] = target: voltage-dependent calcium channel; assay: In vitro 3H-nitrendipine binding assay; conditions: competition with 3H-nitrendipine, plasma membrane from bovine cerebral cortices

| IC50 [1] [nM] | IC50 (rat isolated aorta) [nM] | Structure (SMILES) | effect on tachycardia elicited by electrical stimulation of the spinal cord (pithed rat; result in words) | Emax at 0.002 µM (guinea-pig ileum) [%] | other results |
| --- | --- | --- | --- | --- | --- |
|  |  | CCN(CC)CC(=O)Nc1c(C)cccc1C [lignocaine, reference compound] | no effect |  |  |
|  |  | O=C(NCCO[N+](=O)[O-])c1cccnc1 [nicorandil, reference compound] | no effect |  |  |
|  |  | C[C@H]1[C@H](C)CC[C@]2(C(=O)O)CC[C@]3(C)C(=CC[C@@H]4[C@@]5(C)CC[C@H](O)C(C)(C)[C@@H]5CC[C@]43C)[C@H]12 [ursolic acid] |  |  | heart rate decrease (cardiac function): 32% |
| 35.5 | 5.13 | COC(=O)C1=C(C)NC(C)=C(C(=O)OC)C1c1ccccc1[N+](=O)[O-] [Nifedipine, reference compound] |  | 74 |  |
| 0.347 | 0.0174 | COC(=O)C1=C(C)NC(C)=C(OC(C)=O)C1[C@]12CC[C@@H](C)[C@H](C)[C@H]1C1=CC[C@@H]3[C@@]4(C)CC[C@H](OC)C(C)(C)C4CC[C@@]3(C)[C@]1(C)CC2 (stereo partly shown) [Compound 4, Dihydropyridine-3,5-dicarboxylate Ursolic Acid Derivative] |  | 27 | ID50 (pithed rat; inhibition of electrically induced tachycardia, cumulative intravenous doses): 71620 nM; calcium channel blocker selectivity in pithed rat assay (pithed rat; result in words): selective calcium channel blocker; Response percentage ratio (guinea-pig ileum; 3 mM calcium, response with blocker divided by response without): 0.15 ± 0.009; The affinity constant Ki [2]: 3.1 × 10^−13 mol/1 |
